Laboratory results: US10617734B2, “STAT3 and ERK signal pathway inhibitor comprising mogrosides and analogs thereof” (BEIJING UNIVERSITY OF AGRICULTURE, priority 2014, dated 2020)

Tests used:
[1] = system: phosphorylated STAT3 (P-STAT3, Tyr705); assay: Western Blotting of phosphorylated STAT3 in U937 cells; assay type: cell-based; conditions: 10 μmol/L, 24 hours
Experimental: (§1) The inhibition of the STAT3 and ERK signal pathways achieved by Mogroside I E1, Mogroside II A2 and mogrol was detected by Western Blotting, specifically:
(§2) Group 1: histiocytic lymphoma U937 cells (1×10^6 cells/well) were inoculated into a 6-well culture plate for staying overnight, and 0 and 10 μmol/L of Mogroside I E1, Mogroside II A2 and mogrol were added respectively, and the culture was continued for 24 hours;
(§3) After the termination of the cell culture, the culture solution was removed, and the residue was washed with PBS (0.01 mol/L, pH 7.4), and then a cell lysis solution containing protease inhibitors was added at an amount of 50 μl/well, and the mixture was placed in an ice bath for lysis at 4° C. for 30 min and then centrifuged at 14000 r/min for 10 min, and then total proteins were obtained from the supernatant;
(§4) The protein concentrations were measured with bovine serum albumin (BSA) as the standard. 50 μg of the total proteins was separated by polyacrylamide gel electrophoresis with 12% […], electrophoretically transferred to a PVDF membrane (polyvinylidene fluoride membrane), and blocked for 1 h by 5% of skim milk (containing 0.1% of Tween 20), and then antibodies p-STAT3 (Tyr705) and p-Erk1/2 as well as β-actin were added, and the primary antibody was incubated at 4° C. overnight (β-actin was used as reference in loading amount); the membrane was washed for 3 times with TBS-T, 5 min each time; secondary antibody marked by horseradish peroxidase (HRP) was added for incubation at room temperature for 1 h, the membrane was washed for 3 times with a wash solution (TBS-T), 10 min each time, and then ECL was added for incubation in dark for 5 min, and subsequently, a fluorescence imaging analyzer was used for image development and scanning analysis, and the results of Western Blotting detection are shown in FIGS. 4 to 6.

[2] = system: phosphorylated ERK1/2 (P-ERK1/2); assay: Western Blotting of phosphorylated ERK1/2 in U937 cells; assay type: cell-based; conditions: 10 μmol/L, 24 hours
Experimental: as §1, §2, §3, §4

[3] = system: phosphorylated STAT3 (P-STAT3, Tyr705); assay: Western Blotting of phosphorylated STAT3 in A875 cells; assay type: cell-based, human; conditions: melanoma A875 cells, 10 μmol/L, 24 hours
Experimental: as §1
(§5) Group 2: human melanoma A875 cells (1×10^6 cells/well) were inoculated into a 6-well culture plate for staying overnight, and 0 and 10 μmol/L of Mogroside I E1, Mogroside II A2 and mogrol were added respectively, and the culture was continued for 24 hours;
as §3, §4

[4] = system: phosphorylated ERK1/2 (P-ERK1/2); assay: Western Blotting of phosphorylated ERK1/2 in A875 cells; assay type: cell-based, human; conditions: melanoma A875 cells, 10 μmol/L, 24 hours
Experimental: as §1, §5, §3, §4

[5] = system: phosphorylated STAT3 (P-STAT3, Tyr705); assay: Western Blotting of phosphorylated STAT3 in K562 cells; assay type: cell-based, human; conditions: leukemia cells K562, 10 μmol/L, 24 hours
Experimental: as §1
(§6) Group 3: leukemia cells K562 (1×10^6 cells/well) were inoculated into a 6-well culture plate for staying overnight, and 0 and 10 μmol/L of Mogroside I E1 Mogroside II A2 and mogrol were added respectively, and the culture was continued for 24 hours;
as §3, §4

[6] = system: phosphorylated ERK1/2 (P-ERK1/2); assay: Western Blotting of phosphorylated ERK1/2 in K562 cells; assay type: cell-based, human; conditions: leukemia cells K562, 10 μmol/L, 24 hours
Experimental: as §1, §6, §3, §4

[7] = system: human melanoma A875 cells; assay: MTT colorimetric experiment, cell growth inhibition; assay type: cell-based; conditions: melanoma A875 cells, 0.1, 1, 10, 100, 200 and 250 μmol/L, MTT after 24 h
Experimental: (§7) MTT colorimetric experiments were performed after 24 h, respectively: prior to the finish of each experiment, 15 μl of MTT solution in a concentration of 5 mg/ml was added to each well, and the culture was continued in dark at 37° C. for 4 h, then 150 μl of DMSO was added to each well and oscillating in a shaker for 10 min, and then the residue was placed in a microplate reader to detect the optical density OD) at 490 nm, and the inhibition rate was calculated according to the following formula: cell growth inhibition rate (control group OD490—test group OD490)/control group OD490×100%.

[8] = system: lymphoma U937 cells; assay: as above; assay type: cell-based; conditions: U937 cells, 0.1, 1, 10, 100, 200 and 250 μmol/L, MTT after 24 h
Experimental: as §7

[9] = system: leukemia cells K562; assay: as above; assay type: cell-based, human; conditions: leukemia cells K562, 0.1, 1, 10, 100, 200 and 250 μmol/L, MTT after 24 h
Experimental: as §7

Row | SMILES | expression level of phosphorylated STAT3 (P-STAT3) [1] | expression level of phosphorylated ERK1/2 (P-ERK1/2) [2] | expression level of phosphorylated STAT3 (P-STAT3) [3] | expression level of phosphorylated ERK1/2 (P-ERK1/2) [4] | expression level of phosphorylated STAT3 (P-STAT3) [5] | expression level of phosphorylated ERK1/2 (P-ERK1/2) [6] | cell growth inhibition rate [7] | cell growth inhibition rate [8] | cell growth inhibition rate [9]
1 | C[C@H](CC[C@@H](O)C(C)(C)O)[C@H]1CC[C@@]2(C)[C@@H]3CC=C4[C@@H](CC[C@H](O[C@@H]5O[C@H](CO)[C@@H](O)[C@H](O)[C@H]5O)C4(C)C)[C@]3(C)[C@H](O)C[C@]12C [Mogroside I E1] | significantly decreased | significantly decreased | significantly decreased | significantly decreased | significantly decreased | significantly decreased | inhibitory effect on the proliferation | inhibitory effect on the proliferation | inhibitory effect on the proliferation
2 | C[C@H](CC[C@@H](O)C(C)(C)O)[C@H]1CC[C@@]2(C)[C@@H]3CC=C4[C@@H](CC[C@H](O[C@@H]5O[C@H](CO[C@@H]6O[C@H](CO)[C@@H](O)[C@H](O)[C@H]6O)[C@@H](O)[C@H](O)[C@H]5O)C4(C)C)[C@]3(C)[C@H](O)C[C@]12C [Mogroside II A2] | significantly decreased | significantly decreased | significantly decreased | significantly decreased | significantly decreased | significantly decreased | inhibitory effect on the proliferation | inhibitory effect on the proliferation | inhibitory effect on the proliferation
